# According to patent publication US20250296909A1, “NOVEL BENZENE DERIVATIVE AND IMMUNOSUPPRESSION-RELATED USE THEREOF” (PROVIBIO CO., LTD., priority 2021, published 2025):
# Experiments:
# [1] = test system: T lymphocyte cell line Jurkat E6-1; assay: Cytotoxicity experiment (CCK-8, relative cell survival); format: cell-based; conditions: 24 hours, untreated cells = 100%
# Procedure: To evaluate the cytotoxicity of the compound according to the present invention, the following experiment was conducted.
# The T lymphocyte cell line Jurkat E6-1, purchased from the Korean Cell Line Bank, was cultured in RPMI-1640 medium comprising 10% FBS, 100 U/mL penicillin, and 100 μg/mL streptomycin. After culturing, the cells were harvested and centrifuged at 1,300 rpm for 5 minutes. After removal of the supernatant, the cells were resuspended in the same medium at a concentration of approximately 2.2×10^5 cells/mL, and 90 μL of the cell suspension was distributed per well into a 96-well plate (Costar 96 well cell culture plate, Corning). After treating 10 μL of each compound at different concentrations onto the respective wells of the plate, it was cultured for 24 hours at 37° C. in a 5% CO2 incubator. Subsequently, 10 μL of CCK-8 was added to each well, and it was cultured again for 2 hours at 37° C. in a 5% CO2 incubator. Absorbance was then measured at 450 nm to determine the relative cell survival rate compared to untreated cells, as shown in Table 4.
# The values listed in Table 4 represent the relative cell survival rates in the groups treated with each compound at different concentrations, with the cell survival rate of untreated cells set as 100%.
# spleen T cells = assay: T cell proliferation inhibition (CFSE, FACS), CD3/CD28-activated spleen T cells; format: cell-based, C57BL/6 mice; conditions: Table 2, 3 days, relative to CD3/CD28+DMSO; for inhibition at 10 µM / inhibition at 30 µM / inhibition at 50 µM: Mus musculus, T-cell, 72 h, read-out: Proliferation inhibition rate (%)
# Procedure: To investigate whether the compounds obtained in the Preparation Example have an inhibitory effect on T cell proliferation, the T cell proliferation was determined ex vivo using the fluorescent dye carboxyfluorescein diacetate succinimidyl ester (CFSE), which binds to intracellular molecules by covalent bonds.
# Spleens were harvested and minced from C57BL/6 mice at 7 weeks of age, and then single cells were isolated using a strainer (40 μm pore size, SPL). Red blood cells were removed using ACK (Ammonium-Chloride-Potassium) lysis buffer to isolate only leukocytes. Subsequently, CD90.2 microbeads (130-121-278, Miltenyi Biotech.) were added, and subjected to react at 4° C. for 20 minutes. After that, spleen T cells were isolated using a MACS Magnetic Stand and LS column. The isolated T cells from the spleen were resuspended in 1 mL of Free media (RPMI-1640+200 U/mL penicillin+200 μg/mL streptomycin), followed by the addition of 0.3 μL of CFSE (10 mM), and reacted at 37° C. for 5 minutes. Subsequently, 10 mL of Free media was added to stop the reaction, and the cells were centrifuged to obtain the cell pellet. RPMI 1640 medium containing 10% FBS, 100 U/mL penicillin, and 100 μg/mL streptomycin was added to suspend the cells, and 2×10^5 cells per well were seeded into a 96-well plate and T cells were activated by treatment with CD3 and CD28 antibodies (each at 0.5 μg/mL).
# The compound diluted in DMSO was treated in triplicate at concentrations of 10 μM, 30 μM, and 50 μM, respectively. After incubation at 37° C. with 5% CO2 for 3 days, cell proliferation levels were determined using a FACS Canto machine.
# In the FACS graph of FIG. 1, the y-axis represents the quantity (number) of cells, while the x-axis represents the fluorescence level of the cells. […] This reduction in CFSE fluorescence results in a leftward shift along the x-axis in the graph. This indicates cell proliferation.
# To collectively indicate the proliferation inhibition rate for the experimental results, the relative value of the proliferation amount after compound administration to the proliferation amount after CD3/CD28+DMSO administration was calculated. Subsequently, it was converted into an inhibition amount and expressed as a percentage, thereby determining the proliferation inhibition rate. Specifically, the proliferation inhibition rate was calculated as follows: […]
Compound,Relative cell survival rate (%) ([1]; 10 μM),Relative cell survival rate (%) ([1]; 20 μM),Relative cell survival rate (%) ([1]; 30 μM),Relative cell survival rate (%) ([1]; 50 μM),inhibition at 10 µM (spleen T cells; 10 μM),inhibition at 30 µM (spleen T cells; 30 μM),inhibition at 50 µM (spleen T cells; 50 μM),Proliferation inhibition rate (%) (spleen T cells; 10 μM),Proliferation inhibition rate (%) (spleen T cells; 30 μM),Proliferation inhibition rate (%) (spleen T cells; 50 μM)
CCCCCCCCCCCC(=O)NCc1ccccc1Br [Compound 43],101%,104%,108%,108%,27%,50%,72%,–,–,–
CCCCCCCCCCCCNC(=O)c1ncccc1N [Compound 67],94%,93%,93%,92%,35%,88%,100%,–,–,–
CCCCCCCCNC(=O)c1cccnc1N [Compound 74],101%,84%,81%,77%,66%,91%,95%,–,–,–
CCCCCCCCCCCCNC(=O)c1ccccc1I [Compound 63],70%,78%,75%,79%,30%,78%,89%,–,–,–
CCCCCCCCCCCCNC(=O)c1cccnn1 [Compound 31],111%,111%,102%,102%,15%,57%,69%,–,–,–
CCCCCCCCCCCCNC(=O)c1ccc(F)c(F)c1F [Compound 55],115%,110%,108%,105%,52%,82%,95%,–,–,–
CCCCCCCCCCCCNC(=O)Cc1ccccc1 [Compound 25],95%,90%,87%,84%,20%,90%,99%,–,–,–
CCCCCCCCCCCCNS(=O)(=O)c1ccccc1F [Compound 45],96%,94%,76%,74%,–,–,–,30%,59%,97%
CCCCCCCCCCCCNC(=O)c1ccccc1NC [Compound 65],87%,84%,86%,77%,39%,43%,77%,–,–,–
CCCCCCCCCCCCNC(=O)c1cccnc1O [Compound 70],119%,122%,124%,125%,29%,78%,98%,–,–,–
